The assay addresses Beta-3 Adrenergic Receptor (Homo sapiens (Human), UniProt P13945). Briefly: HTRF cAMP antagonist assay (IC50 determination). The assay is classed as cell-based. The following applies: CHO-K1 cells stably expressing recombinant receptor; antagonism of isoproterenol at EC90; cAMP readout. As to the method: HTRF cAMP assays were performed according to manufacturer's instructions (Cisbio, cAMP Dynamic 2 Assay Kit; #62AM4PEJ). CHO-K1 cells stably expressing recombinant receptor were harvested and suspended in warm PBS to make a 300,000 cells/mL stock. This cell suspension was dispensed into 384 well assay plates (PerkinElmer ProxiPlate #6008280) at 5 μL per well (1500 cells/well) along with a cAMP standard curve.
Compounds were dissolved and serially diluted (5-fold) in DMSO to generate a 10-point dose response stock. The stock was then diluted 100-fold in assay buffer (PBS containing 1 mM IBMX) before a volume of 2.5 μL was added to the cells (the final, top concentration of compound in the dose-response is typically 10 or 100 μM). After a brief incubation, 2.5 μL of isoproterenol stock, prepared at a concentration 4 times its EC90 at the receptor of interest, was added to the wells. The EC90 for isoproterenol, a beta-adrenergic agonist, was determined in separate experiments using standard methods to measure agonist potencies.
Following a 1-hour incubation at room temperature, 5 μL of cAMP-D2 Reagent diluted in Lysis Buffer was added to each well followed by 5 μL of Cryptate Reagent. Plates were further incubated at room temperature for 1 hour prior to reading. Time resolved fluorescence measurements were collected on a suitable, HTRF-capable plate reader.
Counts from the plate reader were fit to the cAMP standard curve on the assay plate in order to determine cAMP concentrations in each well, and these values were used to construct dose-response curves to obtain IC50 values.
A general note: Time-resolved FRET reads energy transfer from a long-lived donor to a nearby acceptor.
Chain of Beta-3 Adrenergic Receptor (P13945 whole entry, species assumed): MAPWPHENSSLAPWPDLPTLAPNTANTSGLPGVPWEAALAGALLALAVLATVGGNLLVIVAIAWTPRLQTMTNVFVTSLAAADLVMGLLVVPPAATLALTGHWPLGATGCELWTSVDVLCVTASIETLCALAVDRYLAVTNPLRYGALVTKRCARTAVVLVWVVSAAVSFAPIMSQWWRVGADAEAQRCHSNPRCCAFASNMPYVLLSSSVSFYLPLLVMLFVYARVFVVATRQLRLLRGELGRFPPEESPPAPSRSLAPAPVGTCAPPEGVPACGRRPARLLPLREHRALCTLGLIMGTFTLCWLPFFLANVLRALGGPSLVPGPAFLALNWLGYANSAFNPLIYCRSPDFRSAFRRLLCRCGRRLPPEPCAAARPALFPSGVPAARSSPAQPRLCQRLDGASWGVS
As for `CS(=O)(=O)c1cccc(OC[C@@H](O)CNC2COC3(CCN(S(=O)(=O)c4cccc(-c5ccncc5)c4)CC3)C2)c1` (stereo partly drawn) [Compound 43, (2S)-1-(3-(methylsulfonyl)phenoxy)-3-(8-(3-(pyridin-4-yl)phenylsulfonyl)-1-oxa-8-azaspiro[4.5]decan-3-ylamino)propan-2-ol], the IC50 worked out at 32.4 nM.
As to `C=CS(=O)(=O)c1cccc(OC[C@@H](O)CN[C@H]2COC3(CCN(S(=O)(=O)c4cnc5ccccc5c4)CC3)C2)c1` [Compound 92, (S)-1-((R)-8-(quinolin-3-ylsulfonyl)-1-oxa-8-azaspiro[4.5]decan-3-ylamino)-3-(3-(vinylsulfonyl)phenoxy)propan-2-ol], the IC50 is 26.9 nM.
Under `CN1CCOc2ncc(S(=O)(=O)N3CCC4(CC3)C[C@@H](NC[C@H](O)COc3cccc(S(=O)(=O)C5(CO)CC5)c3)CO4)cc21` [Compound 155, (S)-1-(3-(1-(hydroxymethyl)cyclopropylsulfonyl)phenoxy)-3-((R)-8-(1-methyl-2,3-dihydro-1H-pyrido[2,3-b][1,4]oxazin-7-ylsulfonyl)-1-oxa-8-azaspiro[4.5]decan-3-ylamino)propan-2-ol] stands 48.2 nM.
The same measure for `O=S(=O)(c1cccnc1)N1CCC2(CC1)C[C@H](NC[C@H](O)COc1cccc(S(=O)(=O)C3(CO)CC3)c1)CO2` [Compound 202, (S)-1-(3-(1-(hydroxymethyl)cyclopropylsulfonyl)phenoxy)-3-((S)-8-(pyridin-3-ylsulfonyl)-1-oxa-8-azaspiro[4.5]decan-3-ylamino)propan-2-ol]: 346 nM; for `NCCCNCc1ccc(-c2cccc(S(=O)(=O)N3CCC4(CC3)C[C@@H](NC[C@H](O)COc3cccc(S(=O)(=O)C5(CO)CC5)c3)CO4)c2)cc1` [Compound 271, (S)-1-((R)-8-(4′-((3-aminopropylamino)methyl)biphenyl-3-ylsulfonyl)-1-oxa-8-azaspiro[4.5]decan-3-ylamino)-3-(3-(1-(hydroxymethyl)cyclopropylsulfonyl)phenoxy)propan-2-ol]: 206 nM.
The same measure for `Cc1cccc(S(=O)(=O)N2CCC3(CC2)CC(NC[C@H](O)COc2cccc(S(C)(=O)=O)c2)CO3)c1` (stereo partly drawn) [Compound 48, (2S)-1-(3-(methylsulfonyl)phenoxy)-3-(8-(m-tolylsulfonyl)-1-oxa-8-azaspiro[4.5]decan-3-ylamino)propan-2-ol]: 46.1 nM; for `COc1ccc(S(=O)(=O)N2CCC3(CC2)C[C@H](NC[C@H](O)COc2cccc(S(=O)(=O)C4(CO)CC4)c2)CO3)cc1-c1ccc(C2(N)CC2)cc1` [Compound 225, (S)-1-((S)-8-(4′-(1-aminocyclopropyl)-6-methoxybiphenyl-3-ylsulfonyl)-1-oxa-8-azaspiro[4.5]decan-3-ylamino)-3-(3-(1-(hydroxymethyl)cyclopropylsulfonyl)phenoxy)propan-2-ol]: 33.1 nM.
As to `CC(C)NCc1ccc(-c2cccc(S(=O)(=O)N3CCC4(CC3)CC(NC[C@H](O)COc3cccc(S(C)(=O)=O)c3)CO4)c2)cc1` (stereo partly drawn) [Compound 80, (2S)-1-(8-(4′-((isopropylamino)methyl)biphenyl-3-ylsulfonyl)-1-oxa-8-azaspiro[4.5]decan-3-ylamino)-3-(3-(methylsulfonyl)phenoxy)propan-2-ol], the IC50 was 38.1 nM.
Under `CN1CCOc2ncc(S(=O)(=O)N3CCC4(CC3)C[C@@H](NC[C@H](O)COc3cccc(S(=O)(=O)C(F)(F)CO)c3)CO4)cc21` [Compound 156, (S)-1-(3-(1,1-difluoro-2-hydroxyethylsulfonyl)phenoxy)-3-((R)-8-(1-methyl-2,3-dihydro-1H-pyrido[2,3-b][1,4]oxazin-7-ylsulfonyl)-1-oxa-8-azaspiro[4.5]decan-3-ylamino)propan-2-ol] stands 24.8 nM.
Take `CC(C)(CN)c1ccc(-c2cccc(S(=O)(=O)N3CCC4(CC3)C[C@@H](NC[C@H](O)COc3cccc(S(=O)(=O)C5(CO)CC5)c3)CO4)c2)cc1` [Compound 181, (S)-1-((R)-8-(4′-(1-amino-2-methylpropan-2-yl)biphenyl-3-ylsulfonyl)-1-oxa-8-azaspiro[4.5]decan-3-ylamino)-3-(3-(1-(hydroxymethyl)cyclopropylsulfonyl)phenoxy)propan-2-ol]: the IC50 was 180 nM.
As for `O=S(=O)(c1ccc2ncccc2c1)N1CCC2(CC1)C[C@@H](NC[C@H](O)COc1cccc(S(=O)(=O)C(F)(F)CO)c1)CO2` [Compound 148, (S)-1-(3-(1,1-difluoro-2-hydroxyethylsulfonyl)phenoxy)-3-((R)-8-(quinolin-6-ylsulfonyl)-1-oxa-8-azaspiro[4.5]decan-3-ylamino)propan-2-ol], the IC50 worked out at 21.8 nM.
As to `CC(C)(C(N)=O)S(=O)(=O)c1cccc(OC[C@@H](O)CN[C@H]2COC3(CCN(S(=O)(=O)c4cnc5ccccc5c4)CC3)C2)c1` [Compound 108, 2-(3-((S)-2-hydroxy-3-((R)-8-(quinolin-3-ylsulfonyl)-1-oxa-8-azaspiro[4.5]decan-3-ylamino)propoxy)phenylsulfonyl)-2-methylpropanamide], the IC50 stood at 325 nM.
Consider `NCc1ccc(-c2cc(S(=O)(=O)N3CCC4(CC3)C[C@@H](NC[C@H](O)COc3cccc(S(=O)(=O)C5(CO)CC5)c3)CO4)ccc2F)cc1` [Compound 216, (S)-1-((R)-8-(4′-(aminomethyl)-6-fluorobiphenyl-3-ylsulfonyl)-1-oxa-8-azaspiro[4.5]decan-3-ylamino)-3-(3-(1-(hydroxymethyl)cyclopropylsulfonyl)phenoxy)propan-2-ol], for which the IC50 was 26.4 nM.
Take `CC(C)Oc1ccc(-c2ccc(CN)cc2)cc1S(=O)(=O)N1CCC2(CC1)C[C@H](NC[C@H](O)COc1cccc(S(=O)(=O)C3CC3)c1)CO2` [Compound 166, (S)-1-((S)-8-(4′-(aminomethyl)-4-isopropoxybiphenyl-3-ylsulfonyl)-1-oxa-8-azaspiro[4.5]decan-3-ylamino)-3-(3-(cyclopropylsulfonyl)phenoxy)propan-2-ol]: the IC50 worked out at 51.2 nM.
As for `CS(=O)(=O)Cc1cccc(OC[C@@H](O)CN[C@H]2COC3(CCN(S(=O)(=O)c4ccc5ncccc5c4)CC3)C2)c1` [Compound 336, (S)-1-(3-(methylsulfonylmethyl)phenoxy)-3-((R)-8-(quinolin-6-ylsulfonyl)-1-oxa-8-azaspiro[4.5]decan-3-ylamino)propan-2-ol], the IC50 amounted to 102 nM.
The same measure for `O=S(=O)(CCO)c1cccc(OC[C@@H](O)CN[C@H]2COC3(CCN(S(=O)(=O)c4cccc(-c5ccncc5)c4)CC3)C2)c1` [Compound 96, (S)-1-(3-(2-hydroxyethylsulfonyl)phenoxy)-3-((R)-8-(3-(pyridin-4-yl)phenylsulfonyl)-1-oxa-8-azaspiro[4.5]decan-3-ylamino)propan-2-ol]: 411 nM; for `O=S(=O)(CCCO)c1cccc(OC[C@@H](O)CN[C@H]2COC3(CCN(S(=O)(=O)c4cnc5ccccc5c4)CC3)C2)c1` [Compound 135, 3-(3-((S)-2-hydroxy-3-((R)-8-(quinolin-3-ylsulfonyl)-1-oxa-8-azaspiro[4.5]decan-3-ylamino)propoxy)phenylsulfonyl)propan-1-ol]: 88.8 nM; for `O=S(=O)(c1cccc(OC[C@@H](O)CN[C@H]2COC3(CCN(S(=O)(=O)c4cnc5cc(F)ccc5c4O)CC3)C2)c1)C1CC1` [Compound 329, 3-((R)-3-((S)-3-(3-(cyclopropylsulfonyl)phenoxy)-2-hydroxypropylamino)-1-oxa-8-azaspiro[4.5]decan-8-ylsulfonyl)-7-fluoroquinolin-4-ol]: 29.5 nM.
Consider `O=S(=O)(c1cccc(OC[C@@H](O)CN[C@H]2COC3(CCN(S(=O)(=O)c4cnc5ccc(F)cc5c4O)CC3)C2)c1)C1CC1` [Compound 325, 3-((R)-3-((S)-3-(3-(cyclopropylsulfonyl)phenoxy)-2-hydroxypropylamino)-1-oxa-8-azaspiro[4.5]decan-8-ylsulfonyl)-6-fluoroquinolin-4-ol], for which the half-inhibitory concentration (IC50) was found to be 34 nM.
In the case of `CN1CCOc2ccc(S(=O)(=O)N3CCC4(CC3)CC(NC[C@H](O)COc3cccc(S(C)(=O)=O)c3)CO4)cc21` (stereo partly drawn) [Compound 32, (2S)-1-(8-(4-methyl-3,4-dihydro-2H-benzo[b][1,4]oxazin-6-ylsulfonyl)-1-oxa-8-azaspiro[4.5]decan-3-ylamino)-3-(3-(methylsulfonyl)phenoxy)propan-2-ol], the IC50 amounted to 21.1 nM.
The same measure for `Cc1ccc(-c2cccc(S(=O)(=O)N3CCC4(CC3)C[C@@H](NC[C@H](O)COc3cccc(S(=O)(=O)CCO)c3)CO4)c2)nc1` [Compound 127, (S)-1-(3-(2-hydroxyethylsulfonyl)phenoxy)-3-((R)-8-(3-(5-methylpyridin-2-yl)phenylsulfonyl)-1-oxa-8-azaspiro[4.5]decan-3-ylamino)propan-2-ol]: 157 nM.
`COCCCS(=O)(=O)c1cccc(OC[C@@H](O)CN[C@H]2COC3(CCN(S(=O)(=O)c4ccc5ncccc5c4)CC3)C2)c1` [Compound 132, (S)-1-(3-(3-methoxypropylsulfonyl)phenoxy)-3-((R)-8-(quinolin-6-ylsulfonyl)-1-oxa-8-azaspiro[4.5]decan-3-ylamino)propan-2-ol]: the IC50 is 739 nM.

One may read the IC50 as the concentration that gives 50% inhibition.

The values are drawn from US10927123B2, “Modulators of the beta-3 adrenergic receptor useful for the treatment or prevention of disorders related thereto” (Arena Pharmaceuticals, Inc., priority 2016, dated 2021).
